Laboratory results: PubChem BioAssay (NCI)
“And” between values parts separate entries of the source, which are not always exact repeats. Identical values can stand only once.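 Exposure lasted 48 hours, with cells grown in 96-well plates and compounds tested at five concentrations. The concentration for 50% growth inhibition is given as GI50. Definition used: TGI = concentration required for complete inhibition of growth.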

Assays:
Assay in all cases: growth of human tumour cells (NCI), 48 h
[1] = system: 786-0 renal
[2] = system: HCT-116 colon
[3] = system: HCT-15 colon
[4] = system: HOP-62 NSCLC
[5] = system: HS 578T breast
[6] = system: HT29 colon
[7] = system: KM12 colon
[8] = system: MALME-3M melanoma
[9] = system: SNB-19 CNS
[10] = system: SW-620 colon

NC(CSC(c1ccccc1)(c1ccccc1)c1ccccc1)C(=O)O (centres undefined)
GI50 [1]: 1.41 µM and 4.24 µM | TGI [1]: 70.3 µM and > 100 µM | GI50 [2]: 0.512 µM and 0.425 µM | TGI [2]: 55.3 µM and 64.2 µM and > 100 µM | GI50 [3]: 2.31 µM and 1.79 µM | TGI [3]: 51.1 µM and > 100 µM | GI50 [4]: 19.3 µM and 4.5 µM | TGI [4]: 63 µM and > 100 µM | GI50 [5]: 0.723 µM | TGI [5]: 21 µM and 32.4 µM | GI50 [6]: 3.71 µM and 3.28 µM | TGI [6]: 27.3 µM and 14.6 µM | GI50 [7]: 5.15 µM and 2.35 µM | TGI [7]: 96.3 µM and 24 µM | GI50 [8]: 1.33 µM and 5.62 µM | TGI [8]: 49.2 µM and 39.2 µM and > 100 µM | GI50 [9]: 2.26 µM and 5.8 µM | TGI [9]: 63.9 µM and > 100 µM | GI50 [10]: 1640 nM and 968 nM | TGI [10]: 107 µM and > 100 µM

Nc1nc(N)nc(CCCCc2nc(N)nc(N)n2)n1
TGI [1]: > 100 µM | TGI [2]: > 100 µM | TGI [3]: > 100 µM | TGI [4]: > 100 µM | TGI [5]: > 100 µM | TGI [6]: > 100 µM | TGI [7]: > 100 µM | TGI [8]: > 100 µM | TGI [9]: > 100 µM | TGI [10]: > 100 µM

N[C@H]1CCC[C@@H](O)C1O (some centres undefined)
TGI [1]: > 100 µM | TGI [2]: > 100 µM | TGI [3]: > 100 µM | TGI [4]: > 100 µM | TGI [5]: > 100 µM | TGI [6]: > 100 µM | TGI [7]: > 100 µM | TGI [8]: > 100 µM | TGI [9]: > 100 µM | TGI [10]: > 100 µM

CC1=CC(=O)NP(=O)(Oc2ccc(Cl)cc2)N1 (centres undefined)
TGI [1]: > 100 µM | TGI [2]: > 100 µM | TGI [3]: > 100 µM | TGI [4]: > 100 µM | TGI [6]: > 100 µM | TGI [7]: > 100 µM | TGI [8]: > 100 µM | TGI [9]: > 100 µM | TGI [10]: > 100 µM

CN(c1cccc(C(=O)O)c1)c1cc(O/N=[N+](\[O-])N(C)C)c([N+](=O)[O-])cc1[N+](=O)[O-]
GI50 [1]: > 100 µM | TGI [1]: > 100 µM | GI50 [2]: > 100 µM | TGI [2]: > 100 µM | GI50 [3]: > 100 µM | TGI [3]: > 100 µM | GI50 [4]: 46.8 µM | TGI [4]: > 100 µM | GI50 [5]: > 100 µM | TGI [5]: > 100 µM | GI50 [6]: > 100 µM | TGI [6]: > 100 µM | GI50 [7]: > 100 µM | TGI [7]: > 100 µM | GI50 [9]: > 100 µM | TGI [9]: > 100 µM | GI50 [10]: > 100000 nM | TGI [10]: > 100 µM

N#CN1CC[C@@H]2CC3(CCC2C1)OCCO3 (some centres undefined)
TGI [1]: > 100 µM | TGI [2]: > 100 µM | TGI [3]: > 100 µM | TGI [4]: > 100 µM | TGI [6]: > 100 µM | TGI [7]: > 100 µM | TGI [8]: > 100 µM | TGI [9]: > 100 µM | TGI [10]: > 100 µM

Cn1cc(-c2ccc3c4ccccc4n(C)c3c2)c2ccccc21
TGI [1]: > 100 µM | TGI [2]: > 100 µM | TGI [3]: > 100 µM | TGI [4]: > 100 µM | TGI [6]: > 100 µM | TGI [7]: > 100 µM | TGI [8]: > 100 µM | TGI [9]: > 100 µM | TGI [10]: > 100 µM

O=[N+]([O-])c1ccccc1/C=N\NC(=S)N/N=C/c1ccccc1[N+](=O)[O-]
GI50 [1]: 38 µM | TGI [1]: > 100 µM | GI50 [2]: 3.78 µM | TGI [2]: > 100 µM | GI50 [3]: 3.76 µM | TGI [3]: > 100 µM | GI50 [4]: 5.57 µM | TGI [4]: > 100 µM | GI50 [5]: 3.61 µM | TGI [5]: 33.6 µM | GI50 [6]: 4.04 µM | TGI [6]: > 100 µM | GI50 [7]: 2.55 µM | TGI [7]: > 100 µM | GI50 [9]: 6.71 µM | TGI [9]: > 100 µM | GI50 [10]: 4290 nM | TGI [10]: > 100 µM

CCCCC[C@@H]1CCCC2NC(CCCCCO[Si](c3ccccc3)(c3ccccc3)C(C)(C)C)CCC21 (some centres undefined)
TGI [1]: 33.2 µM | TGI [2]: 23.7 µM | TGI [3]: 25.7 µM | TGI [4]: 36.8 µM | TGI [6]: 16.1 µM | TGI [7]: 25.4 µM | TGI [8]: 36.9 µM | TGI [9]: 32.7 µM | TGI [10]: 31.6 µM

O=C(n1c2ccccc2c2n[nH]c(=S)nc21)C(F)(F)F
TGI [1]: > 100 µM | TGI [2]: > 100 µM | TGI [3]: > 100 µM | TGI [4]: > 100 µM | TGI [6]: > 100 µM | TGI [7]: > 100 µM | TGI [8]: > 100 µM | TGI [9]: > 100 µM | TGI [10]: > 100 µM

CNc1c2ccccc2nc2occ(Cl)c12
GI50 [1]: 34.6 µM | TGI [1]: > 100 µM | GI50 [2]: 17.1 µM | TGI [2]: 40.5 µM | GI50 [3]: 33.8 µM | TGI [3]: > 100 µM | GI50 [4]: 40.7 µM | TGI [4]: > 100 µM | GI50 [5]: 20.9 µM | TGI [5]: 79.3 µM | GI50 [7]: 32.6 µM | TGI [7]: > 100 µM | GI50 [8]: 25.1 µM | TGI [8]: 59.5 µM | GI50 [9]: 51.6 µM | TGI [9]: > 100 µM

C=C1C(=O)OC2CC1C(OC(=O)/C=C/c1ccccc1)C/C(C)=C/CC/C(C)=C/CCC2(C)O (centres undefined)
TGI [1]: 2.31 µM | TGI [2]: 2.38 µM | TGI [3]: 2.67 µM | TGI [4]: 3.23 µM | TGI [5]: 5.94 µM | TGI [6]: 2.99 µM | TGI [7]: 3.41 µM | TGI [8]: 4.02 µM | TGI [9]: 3.51 µM

COc1ccc(/C=C\c2cc(OC)c(OC)c(OC)c2)cc1NC(=O)/C=C/c1ccc(OC)c(OC)c1
GI50 [1]: 4.79 µM | TGI [1]: > 100 µM | GI50 [2]: 4.35 µM | TGI [2]: > 100 µM | GI50 [3]: 4.41 µM | TGI [3]: > 100 µM | GI50 [4]: 5.42 µM | TGI [4]: > 100 µM | GI50 [6]: 3.39 µM | TGI [6]: > 100 µM | GI50 [7]: 3.91 µM | TGI [7]: > 100 µM | GI50 [8]: > 100 µM | TGI [8]: > 100 µM | GI50 [9]: 4.15 µM | TGI [9]: > 100 µM | GI50 [10]: 4880 nM | TGI [10]: > 100 µM

Cc1cc(NS(=O)(=O)c2ccc(NC(=O)c3ccc(Cl)c4c(Nc5ccc(S(=O)(=O)Nc6cc(C)on6)cc5)c5ccccc5nc34)cc2)no1
TGI [1]: 32.2 µM | TGI [2]: 27.4 µM | TGI [3]: 43 µM | TGI [4]: 55 µM | TGI [6]: 41.6 µM | TGI [7]: 44.3 µM | TGI [8]: 48.7 µM | TGI [9]: 32.4 µM | TGI [10]: 66.1 µM

CC1(Cl)C(=O)NC(=O)N([C@H]2C[C@H](O)[C@@H](CO)O2)C1N=[N+]=[N-] (some centres undefined)
TGI [1]: > 100 µM | TGI [2]: > 100 µM | TGI [3]: > 100 µM | TGI [4]: > 100 µM | TGI [6]: > 100 µM | TGI [7]: > 100 µM | TGI [8]: > 100 µM | TGI [9]: > 100 µM | TGI [10]: > 100 µM

Cc1nc(-n2nc(-c3ccccc3)cc2-c2ccccc2)sc1C(=O)CC(=O)C(=O)Nc1ccc(Cl)c(Cl)c1
TGI [1]: > 100 µM | TGI [2]: > 100 µM | TGI [3]: > 100 µM | TGI [4]: > 100 µM | TGI [6]: > 100 µM | TGI [7]: > 100 µM | TGI [8]: > 100 µM | TGI [9]: > 100 µM | TGI [10]: > 100 µM

COc1ccc(Cn2cc3c(c2-c2ccccc2)CCc2cnoc2-3)cc1
GI50 [1]: 0.243 µM | GI50 [2]: 0.0904 µM | GI50 [3]: 0.127 µM | TGI [3]: > 100 µM | GI50 [4]: 0.279 µM | TGI [4]: > 48.5 µM | GI50 [5]: 0.183 µM | GI50 [6]: 0.0797 µM | TGI [6]: 1.58 µM | GI50 [7]: 0.103 µM | TGI [7]: 2.97 µM | GI50 [9]: 0.351 µM | TGI [9]: > 100 µM | GI50 [10]: 113 nM | TGI [10]: > 100 µM

Cn1c(=O)nc2n(-c3ccc(Br)cc3)c3ccccc3nc-2c1=O
TGI [1]: 22.3 µM | TGI [2]: 16.3 µM | TGI [3]: 14.7 µM | TGI [4]: 64.8 µM | TGI [6]: 7.44 µM | TGI [7]: 36.8 µM | TGI [8]: 12.7 µM | TGI [9]: 9.3 µM | TGI [10]: 6.57 µM

CC(=O)c1cc2c(Br)cccc2oc1=O
TGI [1]: > 100 µM | TGI [2]: > 100 µM | TGI [3]: > 100 µM | TGI [4]: > 100 µM | TGI [5]: > 100 µM | TGI [6]: > 100 µM | TGI [8]: > 100 µM | TGI [9]: > 100 µM | TGI [10]: > 100 µM
